Test results as given in patent US20210171568A1, “CRYSTALLINE FORMS OF SELECTIVE PROGESTERONE RECEPTOR MODULATOR, PROCESSES FOR PREPARATION THEREOF” (Crystal Pharmaceutical (Suzhou) Co., Ltd., priority 2017, published 2021).
Entries after “also recorded” stand apart in the source; their conditions may differ. Read-outs that look alike come from different tables or passages of the source.

How the values were obtained:
Assay type in all cases: physicochemical
[1] = Hygroscopicity by dynamic vapor sorption (DVS); details: for Weight gain under 80% Relative Humidity (Hygroscopicity): DVS, 25° C., 80% RH, about 10 mg of sample; for hygroscopicity as share of that of the prior art solid: relative to prior art solid, weight gain at 80% RH
Experimental: Dynamic Vapor Sorption (DVS) was collected via an SMS (Surface Measurement Systems Ltd.) intrinsic DVS instrument. Its control software is DVS-Intrinsic control software, and its analysis software is DVS-Intrinsic Analysis software. Typical Parameters for DVS test are as follows: • Temperature: 25° C. • Gas and flow rate: N2, 200 mL/min • dm/dt: 0.002%/min • RH range: 0% RH to 95% RH
Dynamic vapor sorption (DVS) was applied to test hygroscopicity of Form CS2, Form CS4 and the prior art amorphous with about 10 mg of samples.

[2] = Physical stability on storage (crystalline form by XRPD before and after storage)
Experimental: (§1) Samples of Form CS2, Form CS4 and the prior art amorphous were stored under condition of 25° C./60% RH (open). Crystalline form and chemical impurity were tested.
(§2) Samples of Form CS2, Form CS4 and the prior art amorphous were stored under condition of 40° C./75% RH (open). Crystalline form and chemical impurity were tested.
(§3) Samples of Form CS2, Form CS4 and the prior art amorphous were stored under condition of 60° C./75% RH (open). Crystalline form and chemical impurity were tested.

[3] = Chemical stability on storage (purity / chemical impurity); details: for Change of Purity: versus initial purity
Experimental: as §1, §2, §3

Residual solvents test = assay: Residual solvents test
Experimental: Residual solvents of Form CS2, Form CS4 and the prior art amorphous were tested. […] According to the guideline of the International Council for Harmonization (ICH) on residual solvents, dichloromethane belongs to Class 2 solvents, and the residual solvent content must not exceed 600 ppm. It can be seen that the residue of dichloromethane in the amorphous solid is much higher than the limits of ICH guideline, and the amorphous not suitable for use as drug substance.

[4] = Particle size distribution; details: in Isopar G containing 0.2% lecithin
Experimental: Form CS2 and Form CS4 of the present disclosure were added into 10 mL of Isopar G (containing 0.2% lecithin). The mixture was mixed thoroughly and transferred into the SDC. The measurement was started when the sample amount indicator is in appropriate position. The average particle diameter calculated by volume, the diameter at which 10% mass is comprised of smaller particles, the diameter at which 50% mass is comprised of smaller particles and the diameter at which 90% mass is comprised of smaller particles were obtained in particle size distribution test. Subsequently, the particle size distribution plot of crystalline forms was obtained.
MV: Average particle diameter calculated by volume.
D10: the size in microns below which 10 percent of the particles reside on a volume basis.
D50: the size in microns below which 50 percent of the particles reside on a volume basis, also known as the median diameter.
D90: the size in microns below which 90 percent of the particles reside on a volume basis.

[5] = 60° C./75% RH (open), 2 weeks, listed as prior art amorphous

SMILES | Weight gain under 80% Relative Humidity (Hygroscopicity) [1] [%] | Solid Form after Storage ([2]; 25° C./60% RH (open), 6 months) | Solid Form after Storage ([2]; 40° C./75% RH (open), 6 months) | Solid Form after Storage ([2]; 60° C./75% RH (open), 2 weeks) | Purity after 6 Months ([3]; 25° C./60% RH (open), 6 months) [%] | Change of Purity ([3]; 25° C./60% RH (open), 6 months) [%] | Purity after 3 Months ([3]; 40° C./75% RH (open), 3 months) [%] | Change of Purity ([3]; 40° C./75% RH (open), 3 months) [%] | Purity after 2 Weeks ([3]; 60° C./75% RH (open), 2 weeks) [%] | Change of Purity ([3]; 60° C./75% RH (open), 2 weeks) [%] | Residual solvents (in words) (Residual solvents test) | hygroscopicity as share of that of the prior art solid [1] | D10 [4] [μm] | D50 [4] [μm] | D90 [4] [μm] | MV, average particle diameter calculated by volume [4] [μm] | other results
C[C@]12C[C@H](c3ccc(S(C)(=O)=O)cc3)C3=C4CCC(=O)C=C4CC[C@H]3[C@@H]1CC[C@@]2(O)C(F)(F)C(F)(F)F [Amorphous, (11β, 17β)-17-hydroxy-11-[4-(methylsulfonyl)phenyl]-17-(pentafluoroethyl)estra-4,9-diene-3-one, reference compound] | 1.89 | Amorphous | Amorphous + Form CS2 | Amorphous + Form CS2 | 97.88 | 0.80 | 97.60 | 1.08 | 97.70 | 0.98 | significantly higher than specification | – | – | – | – | – | Weight gain under 80% Relative Humidity (Hygroscopicity) ([1]; listed as prior art solids): up to 1.89%; Solid Form after Storage ([2]; 40° C./75% RH (open), 6 months, listed as prior art amorphous): partially converted to Form CS2; Solid Form after Storage ([2]; 40° C./75% RH (open), 6 months, listed as prior art solid): partially converts to Form CS2; Solid Form after Storage [2, 5]: partially converted to Form CS2; Solid Form after Storage ([2]; 60° C./75% RH (open), 2 weeks, listed as prior art solid): partially converts to Form CS2; Change of Purity ([3]; 25° C./60% RH (open), 6 months, listed as amorphous): 0.80%; Change of Purity ([3]; 25° C./60% RH (open), 6 months, listed as prior art amorphous): 0.80%; stability on storage (in words) ([3]; 25° C./60% RH, 40° C./75% RH and 60° C./75% RH): unstable; Change of Purity ([3]; 40° C./75% RH (open), 3 months, listed as amorphous): 1.08%; Change of Purity ([3]; 40° C./75% RH (open), 3 months, listed as prior art amorphous): 1.08%; Change of Purity ([3]; 60° C./75% RH (open), 2 weeks, listed as amorphous): 0.98%; Change of Purity [3, 5]: 0.98%; dichloromethane residue (Residual solvents test; ICH limit 600 ppm): 64185 ppm; Residual solvents (in words) (Residual solvents test; listed as prior art): exceeds the standard
C[C@]12C[C@H](c3ccc(S(C)(=O)=O)cc3)C3=C4CCC(=O)C=C4CC[C@H]3[C@@H]1CC[C@@]2(O)C(F)(F)C(F)(F)F [Form CS2, (11β, 17β)-17-hydroxy-11-[4-(methylsulfonyl)phenyl]-17-(pentafluoroethyl)estra-4,9-diene-3-one] | 0.23 | remain unchanged; also recorded: Form CS2 | remain unchanged; also recorded: Form CS2 | remain unchanged; also recorded: Form CS2 | 98.58 | 0.06 | 98.37 | 0.27 | 98.59 | 0.05 | almost no residual solvent | less than 15% | 3.09 | 8.41 | 27.45 | 13.16 | Change of Purity ([3]; 25° C./60% RH (open), 6 months, listed as CS2): 0.06%; Change of Purity ([3]; 40° C./75% RH (open), 3 months, listed as CS2): 0.27%; Change of Purity ([3]; 60° C./75% RH (open), 2 weeks, listed as CS2): 0.05%
C[C@]12C[C@H](c3ccc(S(C)(=O)=O)cc3)C3=C4CCC(=O)C=C4CC[C@H]3[C@@H]1CC[C@@]2(O)C(F)(F)C(F)(F)F [Form CS4, (11β, 17β)-17-hydroxy-11-[4-(methylsulfonyl)phenyl]-17-(pentafluoroethyl)estra-4,9-diene-3-one] | 0.12 | remain unchanged; also recorded: Form CS4 | remain unchanged; also recorded: Form CS4 | remain unchanged; also recorded: Form CS4 | 99.31 | 0.13 | 99.42 | 0.02 | 99.47 | 0.03 | almost no residual solvent | less than 10% | 2.32 | 6.20 | 23.12 | 11.41 | Change of Purity ([3]; 25° C./60% RH (open), 6 months, listed as CS4): 0.13%; Change of Purity ([3]; 40° C./75% RH (open), 3 months, listed as CS4): 0.02%; Change of Purity ([3]; 60° C./75% RH (open), 2 weeks, listed as CS4): 0.03%
